Experimental data from patent publication US5391540A, “Substituted pyridine compounds” (Rohm and Haas Company, priority 1993, dated 1995).

Tests used:
Assay in all cases: Pre-emergent herbicidal activity (Table A)
Type in all cases: in vivo
Canada thistle = conditions: Cirsium arvense, pre-emergence, Cath, 11.2 kg/ha, 10-14 days, read-out: herbicidal rating (% inhibition)
Summary of the method: (§1)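 Seeds or vegetative propagules were set on topsoil compacted to 0.95 to 1.27 cm below the pan rim, then covered with soil thoroughly mixed with a known amount of test compound in acetone or water carrier. Ratings follow a scale of percent inhibition per species.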

Barnyardgrass = conditions: Echinochloa crus-galli, pre-emergence, Bygr, 11.2 kg/ha, 10-14 days, read-out: herbicidal rating (% inhibition)
Summary of the method: as §1

Morningglory = conditions: Ipomoea, pre-emergence, Mogl, 11.2 kg/ha, 10-14 days, read-out: herbicidal rating (% inhibition)
Summary of the method: as §1

Yellow Nutsedge = conditions: Cyperus, pre-emergence, Yens, 11.2 kg/ha, 10-14 days, read-out: herbicidal rating (% inhibition)
Summary of the method: as §1

Cocklebur = conditions: Xanthium strumarium, pre-emergence, Cobu, 11.2 kg/ha, 10-14 days, read-out: herbicidal rating (% inhibition)
Summary of the method: as §1

Rhizome Johnsongrass = conditions: Sorghum halepense, pre-emergence, Rhjg, 11.2 kg/ha, 10-14 days, read-out: herbicidal rating (% inhibition)
Summary of the method: as §1

Common Lambsquarters = conditions: Chenopodium album, pre-emergence, Colq, 11.2 kg/ha, 10-14 days, read-out: herbicidal rating (% inhibition)
Summary of the method: as §1

Quackgrass = conditions: pre-emergence, Rhqg, 11.2 kg/ha, 10-14 days, read-out: herbicidal rating (% inhibition)
Summary of the method: as §1

Downy Brome = conditions: Bromus tectorum, pre-emergence, Dobr, 11.2 kg/ha, 10-14 days, read-out: herbicidal rating (% inhibition)
Summary of the method: as §1

Velvetleaf = conditions: Abutilon theophrasti, pre-emergence, Vele, 11.2 kg/ha, 10-14 days, read-out: herbicidal rating (% inhibition)
Summary of the method: as §1

Pennsylvania Smartweed = conditions: pre-emergence, Pesw, 11.2 kg/ha, 10-14 days, read-out: herbicidal rating (% inhibition)
Summary of the method: as §1

Compound	inhibition at 11200 g/ha (Canada thistle)	inhibition at 11200 g/ha (Barnyardgrass)	inhibition at 11200 g/ha (Morningglory)	inhibition at 11200 g/ha (Yellow Nutsedge)	inhibition at 11200 g/ha (Cocklebur)	inhibition at 11200 g/ha (Rhizome Johnsongrass)	inhibition at 11200 g/ha (Common Lambsquarters)	inhibition at 11200 g/ha (Quackgrass)	inhibition at 11200 g/ha (Downy Brome)	inhibition at 11200 g/ha (Velvetleaf)	inhibition at 11200 g/ha (Pennsylvania Smartweed)
COC(=O)c1c(OC)nc(C(F)(F)F)c(C(=O)OC)c1C [Compound 86, 3,5-pyridinedicarboxylic acid, 2-methoxy-4-methy1-6-(trifluoromethyl)-, dimethyl ester]	0 to 24%	75 to 100%	75 to 100%	0 to 24%	0 to 24%	75 to 100%	75 to 100%	75 to 100%	75 to 100%	50 to 74%	50 to 74%
COc1nc(C(F)(F)F)c(C(=O)SC)c(C2CC2)c1C(=O)SC [Compound 12, 3,5-pyridinedicarbothioic acid, 4-cyclopropy1-2-methoxy-6-(trifluoromethyl)-, S,S-dimethyl ester]	25 to 49%	75 to 100%	75 to 100%	25 to 49%	25 to 49%	0 to 24%	75 to 100%	75 to 100%	75 to 100%	75 to 100%	75 to 100%
CCOC(=O)c1c(OC)nc(C(F)(F)F)c(C(=O)OC)c1CC(C)C [Compound 4, 3,5-pyridinedicarboxylic acid, 2-methoxy-4-(2-methylpropyl)-6-(trifluoromethyl)-, 3-ethyl 5-methyl ester]	75 to 100%	75 to 100%	75 to 100%	25 to 49%	0 to 24%	75 to 100%	75 to 100%	75 to 100%	75 to 100%	75 to 100%	75 to 100%
COc1nc(C(F)(F)F)c(C2=NCCS2)c(CC(C)C)c1C(=O)SC [Compound 54, 3-pyridinecarbothioic acid, 5-(4,5-dihydro-2-thiazolyl)-2-methoxy-4-(2-methylpropyl)-6-(trifluoromethyl)-, S-methyl ester]	75 to 100%	75 to 100%	75 to 100%	0 to 24%	25 to 49%	0 to 24%	75 to 100%	75 to 100%	75 to 100%	75 to 100%	75 to 100%
CN=C(SC)c1c(OC)nc(C(F)(F)F)c(C(=O)OC)c1CC(C)C [Compound 55, 3-pyridinecarboxylic acid, 6-methoxy-5-[(methylimino)(methylthio)methyl]-4-(2-methylpropyl)-2-(trifluoromethyl)-, methyl ester]	0 to 24%	75 to 100%	25 to 49%	0 to 24%	0 to 24%	0 to 24%	75 to 100%	75 to 100%	75 to 100%	25 to 49%	75 to 100%
CCOC=Nc1c(C(F)(F)F)nc(OC)c(C(=O)OC)c1CC(C)C [Compound 61, 3-pyridinecarboxylic acid, 5-[(ethoxymethylene)amino]-2-methoxy-4-(2-methylpropyl)-6-(trifluoromethyl)-, methyl ester]	50 to 74%	75 to 100%	75 to 100%	0 to 24%	25 to 49%	75 to 100%	75 to 100%	75 to 100%	75 to 100%	75 to 100%	75 to 100%
COC(=O)c1c(OC)nc(C(F)(F)F)c(C2=NC(C)CS2)c1CC(C)C (stereo not shown) [Compound 74, 3-pyridinecarboxylic acid, 5-(4,5-dihydro-4-methy1-2-thiazolyl)-2-methoxy-4-(2-methylpropyl)-6-(trifluoromethyl)-, methyl ester]	75 to 100%	75 to 100%	75 to 100%	25 to 49%	75 to 100%	75 to 100%	75 to 100%	75 to 100%	75 to 100%	75 to 100%	75 to 100%
C=CCOc1nc(C(F)(F)F)c(C(=O)OC)c(CC(C)C)c1C(=O)OCC [Compound 23, 3,5-pyridinecarboxylic acid, 4-(2-methy1-propyl)-2-(2-propenyloxy)-6-(trifluoromethyl)-, 3-ethyl 5-methyl ester, hydrate (1:0.3)]	0 to 24%	75 to 100%	25 to 49%	0 to 24%	0 to 24%	75 to 100%	75 to 100%	25 to 49%	75 to 100%	25 to 49%	75 to 100%
COC(=O)c1c(C(F)(F)F)nc(OC)c(C(=O)n2ccnc2)c1CC(C)C [Compound 28, 3-pyridinecarboxylic acid, 6-methoxy-4-(2-methylpropyl)-5-(1H-imidazo1-1-ylcarbonyl)-2-(trifluoromethyl)-, methyl ester]	0 to 24%	75 to 100%	50 to 74%	0 to 24%	75 to 100%	0 to 24%	75 to 100%	0 to 24%	75 to 100%	25 to 49%	50 to 74%
COC(=O)c1c(C(F)(F)F)nc(OC)c(C(=O)SC)c1CC(C)C [Compound 33, 3-pyridinecarboxylic acid, 6-methoxy-4-(2-methylpropyl)-5-[(methylthio)carbonyl]-2-(trifluoromethyl)-, methyl ester]	50 to 74%	75 to 100%	75 to 100%	50 to 74%	25 to 49%	75 to 100%	75 to 100%	75 to 100%	75 to 100%	75 to 100%	75 to 100%
COC(=O)c1c(OC)nc(C(F)(F)F)c(N=CN(C)C)c1CC(C)C [Compound 62, 3-pyridinecarboxylic acid, 5-[[(dimethylamino)methylene]amino]-2-methoxy-4-(2-methylpropyl)-6-(trifluoromethyl)-, methyl ester]	75 to 100%	75 to 100%	75 to 100%	25 to 49%	25 to 49%	50 to 74%	75 to 100%	75 to 100%	75 to 100%	75 to 100%	75 to 100%
COC(=O)c1c(OC)nc(C(F)(F)F)c(C(=O)OC)c1CC1CC1 [Compound 92, 3,5-pyridinedicarboxylic acid, 4-(cyclopropylmethyl)-2-methoxy-6-(trifluoromethyl)-, dimethyl ester]	75 to 100%	75 to 100%	75 to 100%	75 to 100%	50 to 74%	0 to 24%	75 to 100%	75 to 100%	75 to 100%	75 to 100%	75 to 100%
CCSC=Nc1c(C(F)(F)F)nc(OC)c(C(=O)OC)c1CC(C)C [Compound 78, 3-pyridinecarboxylic acid, 5-[[(ethylthio)methylene]amino]-2-methoxy-4-(2-methylpropyl)-6-(trifluoromethyl)-, methyl ester]	75 to 100%	75 to 100%	75 to 100%	0 to 24%	0 to 24%	0 to 24%	75 to 100%	50 to 74%	75 to 100%	75 to 100%	75 to 100%
COC(=O)c1c(OC)nc(C(F)(F)F)c(C(=O)N2CCCCCC2)c1CC(C)C [Compound 73, 3-pyridinecarboxylic acid, 5-[(hexahydro-1H-azepin-1-yl)carbonyl]-2-methoxy-4-(2-methylpropyl)-6-(trifluoromethyl)-, methyl ester]	75 to 100%	75 to 100%	50 to 74%	0 to 24%	0 to 24%	75 to 100%	75 to 100%	75 to 100%	75 to 100%	25 to 49%	75 to 100%
